From ChEMBL document CHEMBL1201862, “PubChem BioAssay data set” (2004)
Activity calls are given as the source filed them.

Assays:
[1] = non-specific 3'UTR reporter inhibition in Clone20-Shn3RL – cell-based, Renilla luciferase, cherry-picked, counter-screen for Shn3 inhibitor project, dose response (AID 624133); format: functional
[2] = Luminescence Cell-Based Dose Retest to Confirm Inhibitors of Cancer Stem Cells. [Related pubchem assays (depositor defined):AID2717, AID2721]; format: functional; details: Homo sapiens
[3] = loss of viability in HepG2 cells – cell-based, CellTiter-Glo, cherry-picked, cytotoxicity control for Shn3 inhibitor project, dose response (AID 624134); format: functional
[4] = reduction of Shn3 3'UTR-driven luciferase in osteoblasts – cell-based, Clone20 osteoblasts, firefly luciferase, cherry-picked, dose response (AID 624132); format: functional;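 note: firefly luciferase luminescence from reporter carrying the Shn3 3'UTR in osteoblasts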
[5] = tested on: Jurkat; assay: blockers of NF-kB activation in T cells – Jurkat, luciferase reporter, luminescence, B- and T-cell, dose response (AID 489004); format: functional, cell-based; details: Homo sapiens;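 note: NF-kB luciferase reporter Jurkat cells stimulated with PMA plus ionomycin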
[6] = Trypanosoma cruzi growth suppression in host cells – NIH3T3 host cells, beta-gal luminescence, confirmation (AID 2044); format: functional, cell-based;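 note: intracellular parasites grown in NIH/3T3 mouse fibroblasts as host cells; luminescent beta-galactosidase reporter signal from transgenic T. cruzi replicating inside host cells; inhibitors lower the luminescence signal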
[7] = NIH3T3 cell viability loss – ATP luminescence, mouse fibroblasts, counter-screen, dose response (AID 2010); format: functional, cell-based;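 note: cells exposed to compound for about 90 hours before reading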
[8] = tested on: INS1; assay: INS-1E survival protection against cytokine death – cell-based, luminescence, retest, dose response (AID 449756); format: functional; details: Rattus norvegicus;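 note: cell death triggered by IL-1 beta plus TNF-alpha plus IFN-gamma mixture; protective hits raise ATP signal compared with cytokine alone wells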
[9] = HEK-293T viability loss, compound-treated – cell-based, uHTS hits, cytotoxicity control for B/T-cell NF-kB inhibitor project, dose response (AID 489019); format: functional;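 note: IC50 reflects cytotoxicity as loss of cell viability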
[10] = target: Dual specificity tyrosine-phosphorylation-regulated kinase 1A (Rattus norvegicus, UniProt Q63470); format: biochemical, Homo sapiens
[11] = target: T1, Polyadenylate-binding protein 1 (Homo sapiens, UniProt P11940); assay: MLLE binding blockers, Cy5 peptide tracer – biochemical, fluorescence polarization, Cy5-PAM2 peptide, secondary, miRNA deadenylation inhibitor project, dose response (AID 602260); format: functional; details: read-out: IC50_Mean
T1 sequence (P11940 whole entry): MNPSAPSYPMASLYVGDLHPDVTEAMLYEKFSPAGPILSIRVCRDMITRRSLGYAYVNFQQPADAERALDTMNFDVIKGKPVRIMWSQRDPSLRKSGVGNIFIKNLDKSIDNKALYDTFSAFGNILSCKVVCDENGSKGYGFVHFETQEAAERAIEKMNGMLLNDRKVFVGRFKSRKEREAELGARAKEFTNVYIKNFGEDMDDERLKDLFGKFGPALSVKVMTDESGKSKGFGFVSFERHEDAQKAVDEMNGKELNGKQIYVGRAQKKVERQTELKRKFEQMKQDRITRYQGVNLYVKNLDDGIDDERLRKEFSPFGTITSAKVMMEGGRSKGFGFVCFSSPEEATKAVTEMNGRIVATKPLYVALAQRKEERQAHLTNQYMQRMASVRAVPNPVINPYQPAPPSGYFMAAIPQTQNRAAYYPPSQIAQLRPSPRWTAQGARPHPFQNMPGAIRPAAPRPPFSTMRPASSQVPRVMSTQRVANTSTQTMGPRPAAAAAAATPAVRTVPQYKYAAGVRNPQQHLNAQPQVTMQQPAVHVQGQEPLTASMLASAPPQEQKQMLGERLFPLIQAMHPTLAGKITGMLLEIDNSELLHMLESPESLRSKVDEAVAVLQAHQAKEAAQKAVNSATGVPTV

[12] = target: Large T antigen (Simian virus 40, UniProt P03070); format: functional, Betapolyomavirus macacae;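 note: Confirmatory-stage PubChem screen for compounds that inhibit SV40 T antigen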
Large T antigen, sequence (P03070 whole entry, the tested form may be a part): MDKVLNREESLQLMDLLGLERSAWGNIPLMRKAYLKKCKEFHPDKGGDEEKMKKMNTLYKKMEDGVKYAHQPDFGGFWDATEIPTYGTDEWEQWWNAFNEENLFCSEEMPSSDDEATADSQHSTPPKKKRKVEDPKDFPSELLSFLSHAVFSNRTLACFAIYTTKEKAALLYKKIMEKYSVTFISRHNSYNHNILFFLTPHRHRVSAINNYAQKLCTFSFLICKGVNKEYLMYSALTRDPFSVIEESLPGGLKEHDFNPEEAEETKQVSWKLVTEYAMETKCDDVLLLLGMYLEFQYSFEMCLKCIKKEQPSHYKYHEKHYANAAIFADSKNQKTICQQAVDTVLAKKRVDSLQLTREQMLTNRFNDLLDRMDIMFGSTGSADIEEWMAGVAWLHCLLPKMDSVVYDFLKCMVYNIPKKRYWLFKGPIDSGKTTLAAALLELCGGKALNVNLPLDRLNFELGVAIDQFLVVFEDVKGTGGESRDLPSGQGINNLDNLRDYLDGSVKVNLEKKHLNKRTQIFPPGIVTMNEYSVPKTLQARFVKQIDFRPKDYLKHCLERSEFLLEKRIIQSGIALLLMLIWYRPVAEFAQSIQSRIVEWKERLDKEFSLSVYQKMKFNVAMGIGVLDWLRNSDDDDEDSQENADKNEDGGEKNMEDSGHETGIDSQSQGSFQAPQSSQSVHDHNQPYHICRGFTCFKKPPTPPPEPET

[13] = target: T1, Polyadenylate-binding protein 1; assay: MLLE domain peptide-binding blockers, IC50 – biochemical, fluorescence polarization, FITC-PAM2 peptide, dose response (AID 602259); format: functional; details: read-out: IC50_Mean
[14] = luciferase reporter signal suppression in cells – H4 neuroglioma cells, luminescence, dose response (AID 1990); format: functional, cell-based
[15] = tested on: Vero; assay: cells; format: functional, cell-based; details: Chlorocebus sabaeus
[16] = tested on: Vero; assay: cells; format: functional; details: Chlorocebus sabaeus
[17] = tested on: H9c2; assay: cells; format: functional, cell-based; details: Rattus norvegicus, H9c2, Myocardium;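 note: confirmatory concentration-response retest of ultra-high-throughput screening hits for modulation of myocardial damage; cell death induced by hydrogen peroxide oxidative stress; compound pretreatment for 60 min then peroxide exposure for 2 h; potency is for protecting the cells against peroxide damage rather than for killing them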
[18] = Luminescence Cell-Based Dose Response HTS to Identify Inhibitors of 5'UTR Stem-Loop Driven Prion Protein mRNA Translation in H4 Neuroglioblastoma Cells. [Related pubchem assays: 1827 (Project Summary), 1813 (Primary HTS)]; format: functional
[19] = alpha-synuclein stem-loop luciferase translation blockers – H4 neuroglioma cells, luminescence, confirmation (AID 1988); format: functional, cell-based
[20] = target: T2, Ubiquitin-conjugating enzyme E2 N (Homo sapiens, UniProt P61088); format: functional;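 note: Dose-response confirmation in a TR-FRET assay detecting UBC13-driven polyubiquitin chain formation, inhibition measured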
T2 sequence (P61088 whole entry): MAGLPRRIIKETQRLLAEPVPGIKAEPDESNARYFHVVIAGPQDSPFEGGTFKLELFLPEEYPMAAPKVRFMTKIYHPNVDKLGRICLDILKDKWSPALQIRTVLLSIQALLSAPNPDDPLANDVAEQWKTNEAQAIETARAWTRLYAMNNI

[21] = target: Trypsin (Sus scrofa, UniProt P00761); assay: trypsin protease activity blockade – biochemical, quenched peptide fluorescence, cherry-pick, selectivity assay for Rce1 protease inhibitor project, dose response (AID 488789)
Trypsin, sequence (P00761 whole entry): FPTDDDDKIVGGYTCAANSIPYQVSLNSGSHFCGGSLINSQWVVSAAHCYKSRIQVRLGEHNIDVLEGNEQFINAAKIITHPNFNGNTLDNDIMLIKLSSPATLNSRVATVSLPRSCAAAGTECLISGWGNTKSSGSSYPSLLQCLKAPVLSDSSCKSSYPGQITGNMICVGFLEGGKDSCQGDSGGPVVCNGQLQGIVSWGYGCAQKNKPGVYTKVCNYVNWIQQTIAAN

[22] = target: CAAX prenyl protease 2 (Homo sapiens, UniProt Q9Y256); assay: inhibition of Ras-converting CAAX protease Rce1 – biochemical, yeast membranes, quenched-peptide fluorescence, cherry-pick, dose response (AID 588849)
CAAX prenyl protease 2 (Homo sapiens, UniProt Q9Y256), sequence (Q9Y256 whole entry): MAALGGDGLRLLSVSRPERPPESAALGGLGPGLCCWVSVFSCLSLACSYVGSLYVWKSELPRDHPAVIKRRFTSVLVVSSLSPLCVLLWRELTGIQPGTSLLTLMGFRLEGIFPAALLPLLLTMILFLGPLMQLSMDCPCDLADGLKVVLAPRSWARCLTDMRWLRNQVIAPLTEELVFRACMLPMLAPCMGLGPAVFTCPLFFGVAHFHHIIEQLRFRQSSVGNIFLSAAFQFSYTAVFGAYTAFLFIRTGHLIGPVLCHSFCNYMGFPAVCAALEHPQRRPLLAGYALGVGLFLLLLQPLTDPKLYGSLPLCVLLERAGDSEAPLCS

[23] = target: CAAX prenyl protease 2 (Saccharomyces cerevisiae S288c, UniProt Q03530); format: biochemical
[24] = tested on: HEK293; assay: cells; details: Homo sapiens
[25] = tested on: HEK293; assay: cells; details: Homo sapiens; remark: listed apart in the source
[26] = target: T3, Microphthalmia-associated transcription factor (Homo sapiens, UniProt O75030); assay: reducers of TRPM1 reporter luminescence, concentration series – cell-based, SK-MEL-5, cherry-picked, set 3, MITF inhibitor project, dose response (AID 493073); format: functional;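 note: SK-MEL-5 melanoma cells with luciferase driven by the MITF target TRPM1 promoter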
T3 sequence (O75030 whole entry): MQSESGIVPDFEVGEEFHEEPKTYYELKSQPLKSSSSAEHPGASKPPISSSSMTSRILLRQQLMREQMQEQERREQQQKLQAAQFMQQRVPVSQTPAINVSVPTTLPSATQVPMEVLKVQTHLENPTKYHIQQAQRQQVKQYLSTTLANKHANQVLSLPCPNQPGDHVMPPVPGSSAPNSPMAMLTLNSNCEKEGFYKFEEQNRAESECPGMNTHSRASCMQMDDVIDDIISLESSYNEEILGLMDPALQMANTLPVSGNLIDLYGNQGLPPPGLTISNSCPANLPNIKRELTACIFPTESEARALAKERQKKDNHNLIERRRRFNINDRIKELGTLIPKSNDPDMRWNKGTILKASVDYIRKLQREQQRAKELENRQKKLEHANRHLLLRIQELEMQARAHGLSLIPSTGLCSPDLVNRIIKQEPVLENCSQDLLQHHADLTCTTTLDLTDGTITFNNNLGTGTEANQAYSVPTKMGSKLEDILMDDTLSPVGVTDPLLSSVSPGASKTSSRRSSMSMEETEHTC

[27] = target: Paired box protein Pax-8 (Homo sapiens, UniProt Q06710); assay: PAX8 transcriptional activity inhibition in RMG-I – RMG-I cells, luciferase, cherry-pick, dose response (AID 687027); format: functional, cell-based;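 note: luciferase reporter driven by Pax8 target thyroperoxidase promoter measured by SteadyGlo luminescence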
Paired box protein Pax-8, sequence (Q06710 whole entry, the tested form may be a part): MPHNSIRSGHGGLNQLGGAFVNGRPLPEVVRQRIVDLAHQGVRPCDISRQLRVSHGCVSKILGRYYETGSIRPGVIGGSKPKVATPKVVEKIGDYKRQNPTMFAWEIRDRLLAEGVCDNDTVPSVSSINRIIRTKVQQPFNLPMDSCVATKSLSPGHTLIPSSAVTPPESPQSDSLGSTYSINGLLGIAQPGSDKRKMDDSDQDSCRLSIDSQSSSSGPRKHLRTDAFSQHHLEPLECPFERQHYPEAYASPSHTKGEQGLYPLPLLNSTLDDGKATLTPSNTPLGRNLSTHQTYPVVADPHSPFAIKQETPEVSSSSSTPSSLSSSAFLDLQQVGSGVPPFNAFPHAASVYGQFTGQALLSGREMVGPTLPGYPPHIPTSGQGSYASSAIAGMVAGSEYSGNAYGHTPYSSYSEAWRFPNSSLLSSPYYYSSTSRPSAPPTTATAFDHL

[28] = Fluorescence-based cell-based high throughput dose response assay for inhibitors of the interaction of nucleotide-binding oligomerization domain containing 2 (NOD2) and the receptor-interacting serine-threonine kinase 2 (RIPK2).; format: functional; details: Homo sapiens
[29] = tested on: A-375; assay: proliferation inhibition in MITF-low A375 cells – cell-based, cherry-pick samples, set 2, counter-screen for MITF modulator project, dose response (AID 540335); format: functional; details: Homo sapiens
[30] = tested on: A-375; assay: MITF: Counter assay: A375 proliferation Measured in Cell-Based System Using Plate Reader - 2084-03_Inhibitor_Dose_DryPowder_Activity. [Related pubchem assays (depositor defined):AID488944]; format: functional; details: Homo sapiens
[31] = tested on: BJ; assay: BJ-TERT fibroblast viability loss – cell-based, RAS-independent, luminescence, dose response (AID 1933); format: functional; details: Homo sapiens
[32] = tested on: BJ; assay: cells; format: functional, cell-based; details: Homo sapiens
[33] = DRD fibroblast viability loss – cell-based, non-viral oncogenic, luminescence, dose response (AID 1934); format: functional; details: Homo sapiens
[34] = A Cell Based Secondary Assay To Explore Cytotoxicity of Compounds that Sensitize Mycobacterium Tuberculosis to Beta-Lactam Antibiotics.; format: functional
[35] = tested on: BJ; assay: BJ-TERT-LT-ST fibroblast viability loss – cell-based, RAS-independent, luminescence, dose response (AID 1935); format: functional; details: Homo sapiens;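 note: BJ fibroblasts immortalized with TERT plus LT and ST oncogenes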
[36] = target: Voltage-gated inwardly rectifying potassium channel KCNH2 (Homo sapiens, UniProt Q12809); details: Potency;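 note: confirmatory quantitative high-throughput screen measuring inhibition of hERG channel activity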
Voltage-gated inwardly rectifying potassium channel KCNH2, sequence (Q12809 whole entry): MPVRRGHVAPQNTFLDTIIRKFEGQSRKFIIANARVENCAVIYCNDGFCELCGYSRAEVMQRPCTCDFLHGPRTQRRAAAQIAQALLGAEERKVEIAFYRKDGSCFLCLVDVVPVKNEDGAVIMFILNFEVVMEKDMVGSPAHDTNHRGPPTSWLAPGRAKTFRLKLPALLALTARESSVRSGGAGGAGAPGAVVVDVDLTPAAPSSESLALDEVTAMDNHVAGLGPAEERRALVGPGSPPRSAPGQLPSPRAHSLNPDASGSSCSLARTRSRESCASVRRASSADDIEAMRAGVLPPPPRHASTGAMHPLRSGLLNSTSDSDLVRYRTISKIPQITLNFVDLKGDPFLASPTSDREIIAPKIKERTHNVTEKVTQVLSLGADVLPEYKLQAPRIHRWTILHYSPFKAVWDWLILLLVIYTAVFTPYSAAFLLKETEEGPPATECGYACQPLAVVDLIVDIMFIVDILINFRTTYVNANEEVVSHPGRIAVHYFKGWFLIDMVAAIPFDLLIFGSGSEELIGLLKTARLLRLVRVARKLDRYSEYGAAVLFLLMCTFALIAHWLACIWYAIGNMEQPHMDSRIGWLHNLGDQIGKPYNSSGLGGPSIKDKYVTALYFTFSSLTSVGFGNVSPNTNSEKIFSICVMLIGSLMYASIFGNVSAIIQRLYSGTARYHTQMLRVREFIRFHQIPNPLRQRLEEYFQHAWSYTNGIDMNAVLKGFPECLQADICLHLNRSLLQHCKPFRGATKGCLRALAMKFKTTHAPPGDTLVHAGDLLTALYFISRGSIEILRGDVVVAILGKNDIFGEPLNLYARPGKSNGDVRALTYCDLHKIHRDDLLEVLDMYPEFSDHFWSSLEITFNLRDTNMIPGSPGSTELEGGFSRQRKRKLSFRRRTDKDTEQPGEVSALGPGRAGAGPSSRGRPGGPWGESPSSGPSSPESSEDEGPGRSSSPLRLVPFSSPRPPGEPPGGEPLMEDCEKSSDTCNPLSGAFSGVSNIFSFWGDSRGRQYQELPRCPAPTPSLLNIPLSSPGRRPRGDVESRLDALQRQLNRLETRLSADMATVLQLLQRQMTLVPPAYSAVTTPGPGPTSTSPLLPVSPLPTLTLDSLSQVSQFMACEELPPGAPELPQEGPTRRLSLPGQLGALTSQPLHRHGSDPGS

[37] = target: Heat shock protein HSP 90-alpha (Homo sapiens, UniProt P07900); format: functional, organism-based
[38] = target: Glucose-6-phosphate 1-dehydrogenase (Homo sapiens, UniProt P11413); assay: inhibition of Homo sapiens G6PD, dose series – biochemical, fluorescence, selectivity assay for P. falciparum G6PD inhibitor project, dose response (AID 504792); format: functional
Glucose-6-phosphate 1-dehydrogenase, sequence (P11413 whole entry): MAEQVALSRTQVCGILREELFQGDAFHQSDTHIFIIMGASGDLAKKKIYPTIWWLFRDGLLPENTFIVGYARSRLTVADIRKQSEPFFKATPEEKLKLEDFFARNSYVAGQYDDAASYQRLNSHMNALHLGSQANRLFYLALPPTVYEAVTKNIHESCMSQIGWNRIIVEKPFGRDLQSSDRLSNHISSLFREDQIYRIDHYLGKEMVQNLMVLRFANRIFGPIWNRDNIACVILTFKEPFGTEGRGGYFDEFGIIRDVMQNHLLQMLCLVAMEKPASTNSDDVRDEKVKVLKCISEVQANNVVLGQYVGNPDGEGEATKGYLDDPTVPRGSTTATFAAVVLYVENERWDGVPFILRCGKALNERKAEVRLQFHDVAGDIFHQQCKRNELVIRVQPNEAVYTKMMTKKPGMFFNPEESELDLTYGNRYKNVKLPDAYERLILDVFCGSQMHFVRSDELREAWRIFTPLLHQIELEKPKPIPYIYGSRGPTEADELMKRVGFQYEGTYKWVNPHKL

[39] = target: DNA topoisomerase (Yersinia pestis, UniProt A0A2S9PM60); assay: Yersinia topoisomerase I cleavage product accumulation – biochemical, cherry-pick, dose response (AID 588525)
DNA topoisomerase, sequence (A0A2S9PM60 whole entry): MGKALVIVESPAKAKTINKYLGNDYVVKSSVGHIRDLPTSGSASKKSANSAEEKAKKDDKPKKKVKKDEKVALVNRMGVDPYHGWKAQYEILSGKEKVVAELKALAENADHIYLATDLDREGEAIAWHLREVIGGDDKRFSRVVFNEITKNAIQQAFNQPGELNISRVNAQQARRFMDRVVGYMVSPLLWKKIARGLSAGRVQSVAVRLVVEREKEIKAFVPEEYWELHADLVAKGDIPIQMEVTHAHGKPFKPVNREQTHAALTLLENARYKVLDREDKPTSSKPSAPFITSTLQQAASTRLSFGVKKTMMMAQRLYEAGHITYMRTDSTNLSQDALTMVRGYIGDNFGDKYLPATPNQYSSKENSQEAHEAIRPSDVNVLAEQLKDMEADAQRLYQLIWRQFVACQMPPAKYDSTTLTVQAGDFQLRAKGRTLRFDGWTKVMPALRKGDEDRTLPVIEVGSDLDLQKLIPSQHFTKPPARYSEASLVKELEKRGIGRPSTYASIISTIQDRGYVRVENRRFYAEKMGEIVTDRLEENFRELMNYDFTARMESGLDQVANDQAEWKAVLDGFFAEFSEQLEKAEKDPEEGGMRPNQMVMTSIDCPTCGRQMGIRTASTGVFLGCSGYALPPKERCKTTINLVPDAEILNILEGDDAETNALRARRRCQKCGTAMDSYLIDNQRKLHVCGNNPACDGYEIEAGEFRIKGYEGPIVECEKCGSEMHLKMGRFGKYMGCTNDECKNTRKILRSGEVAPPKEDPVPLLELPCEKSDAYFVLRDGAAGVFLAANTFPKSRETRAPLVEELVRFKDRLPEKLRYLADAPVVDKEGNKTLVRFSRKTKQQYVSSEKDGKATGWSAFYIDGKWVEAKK

[40] = tested on: HEK293; assay: HEK293T cell viability loss, resazurin readout – resazurin fluorescence, cytotoxicity control for NF-kB activator project, SAR follow-up (AID 493251); format: functional, cell-based; details: Homo sapiens
[41] = tested on: Jurkat; assay: SAR Analysis of small molecule inhibitors of T-cell specific antigen receptor-induced NF-kB activation in a Jurkat cell line using a luminescence assay - Set 2. [Related pubchem assays (depositor defined):AID435003, AID435012, AID465]; format: functional, cell-based; details: Homo sapiens
[42] = tested on: HEK293; assay: SAR Analysis of small molecule inhibitors of T-cell specific antigen receptor-induced NF-kB activation in a HEK-293T cell line using a luminescence assay - Set 2. [Related pubchem assays (depositor defined):AID435003, AID435012, AID489026]; format: functional, cell-based; details: Homo sapiens

Cc1sc2ncnc(N3CCN(CCOc4ccc(Cl)cc4)CC3)c2c1C
AC50 [1]: 6.27 µM (active) | AC50 [2]: 5.5 µM (active) | AC50 [3]: 3.27 µM (active) | AC50 [4]: 1.35 µM (active) | IC50 [5]: 64.1 µM (inactive) | EC50 [6]: 2.29 µM (active) | EC50 [7]: > 30 µM (not active) | AC50 [8]: 2.74 µM (active) | IC50 [9]: > 80 µM (inactive)

OC1=C2Sc3ccccc3N=C2CCC1
AC50 [10]: 8.45 µM (active) | IC50 [11]: 35.2 µM (inactive) | IC50 [12]: 9.55 µM (active) | IC50 [13]: 59 µM (inactive)

CC(Oc1cccc(Cl)c1)C(=O)Nc1nc(-c2ccccn2)cs1 (centres undefined)
EC50 [14]: 10.4 µM (active) | IC50 [15]: > 25 µM (active) | CC50 [16]: 15.8 µM (active) | IC50 [17]: > 79 µM (inactive) | EC50 [6]: 0.822 µM (active) | EC50 [7]: 6.81 µM (active) | EC50 [18]: 11.9 µM (active) | EC50 [19]: 9.63 µM (active)

COc1ccc(-c2cc(C(=O)NCCCN3CCCC3=O)c3ccccc3n2)cc1
IC50 [20]: > 20 µM (inactive) | AC50 [21]: 9.31 µM (active) | AC50 [22]: 23.3 µM (active) | AC50 [23]: 18 µM (active)

O=C(Cn1ncc(Cl)c(Cl)c1=O)Nc1ccc2c(c1)OCO2
EC50 [24]: > 59.6 µM (inactive) | EC50 [25]: > 59.6 µM (inactive) | AC50 [26]: 13.2 µM (active) | AC50 [27]: 4.07 µM (active) | IC50 [28]: 11.8 µM (inactive)

Cc1ccc(-c2nc(CN3CCCCC3)cc(CN3CCCCC3)c2O)cc1
AC50 [22]: 10.1 µM (active)

NC(=NOC(=O)c1ccncc1)c1cccc([N+](=O)[O-])c1
AC50 [29]: > 35 µM (active) | AC50 [30]: > 35 µM (active)

CC(C)Cc1cc(-c2ccco2)c(C#N)c(N)n1
EC50 [24]: > 59.6 µM (inactive) | EC50 [25]: > 59.6 µM (inactive)

COc1ccc2[nH]cc(C(=O)CCl)c2c1
EC50 [31]: 4.61 µM (active) | EC50 [32]: 7.02 µM (active) | EC50 [33]: 8.64 µM (active) | CC50 [34]: 5.65 µM (active) | AC50 [29]: 45.9 µM (active) | AC50 [26]: 5.65 µM (active) | EC50 [35]: 7.84 µM (inconclusive)

N=C1C=CC(=C(c2ccc(N)cc2)c2ccc(N)cc2)C=C1
AC50 [36]: 44.7 µM (inconclusive)

O=[N+]([O-])c1ccc(NC(c2ccccc2)c2ccc3cccnc3c2O)cc1 (centres undefined)
IC50 [15]: > 25 µM (active) | CC50 [16]: 4.02 µM (active) | AC50 [37]: 3.92 µM (active)

CN(C)c1ccc2nc3ccc(=O)cc-3sc2c1
IC50 [38]: > 80 µM (inactive) | AC50 [39]: 4.67 µM (active)

CCCOc1ccc(C(=O)Nc2ccc(S(=O)(=O)N3C[C@@H]4C[C@@H](C3)c3cccc(=O)n3C4)cc2)cc1
AC50 [39]: 3.3 µM (active)

CN1CCN(c2ccccc2NC(=O)c2ccc([N+](=O)[O-])o2)CC1
IC50 [40]: 23.6 µM (inactive) | AC50 [26]: 4.95 µM (active) | IC50 [41]: 24.8 µM (inactive) | IC50 [42]: 15.6 µM (active)

Clc1ccc(C(c2ccccc2Cl)C(Cl)(Cl)Cl)cc1 (centres undefined)
AC50 [36]: 8.91 µM (inconclusive)
